Test system: adult human ex vivo retinal explants
Test: AAV transduction of adult human ex vivo retinal explants, quantified by immunofluorescence
Format: cell-based
Conditions: CAG promoter, mean±s.d
Description: Finally, the inventors provided NIR sensitivity to in a blind human retina. They targeted rTRPV1 to adult human ex vivo retinal explants, kept alive in culture for eight weeks post mortem. Cultured retinas lose light sensitivity after 16 hours. Using a CAG promoter, a density of 2477±889 rTRPV1 positive photoreceptors was achieved per mm^2 of explant tissue (mean±s.d). 94.5±4.2% of rTRPV1 positive cells were photoreceptors (n=2583 rTRPV1 positive cells mm^−2, n=2477 rTRPV1 positive photoreceptors mm^−2, mean±s.d).
Human retinal tissue was obtained after corneal tissue harvest from adult multi-organ donors with no reported history of eye disease, n=2 eyes from n=2 donors. […] Light responses were recorded from samples 8 weeks post-mortem. […]
A Zeiss LSM 700 laser scanning confocal microscope was used to acquire images of antibody stained cells and tissues with an EC Plan-Neofluar 40×/1.30 oil M27 objective at up to 4 excitation laser lines according to secondary antibody specification. Expression was assessed from 1024×1024 pixel images in a z-stack with 0.75 μm steps. […] AAV transduction was quantified from retinal wholemounts. […] Quantification was performed separately for outer nuclear layer, inner nuclear layer and ganglion cell layer.

TRPV1.465-6x-His: rat TRPV1 channel with 6x-His epitope tag inserted in the first extracellular loop after amino acid 465; delivered by AAV
density of rTRPV1 positive photoreceptors (explant tissue): 2477±889 per mm^2
rTRPV1 positive cells that were photoreceptors: 94.5±4.2%

— patent publication US12622965B2, “Therapeutical tools and methods using temperature-sensitive receptors for treating blindness” (FRIEDRICH MIESCHER INSTITUTE FOR BIOMEDICAL RESEARCH, priority 2020, dated 2026)
